# Measurements published in US20260327655A1, “SMALL-MOLECULE REGULATED ALTERNATIVE SPLICING” (priority 2023, published 2026).
# Key:
# RS1-10 = assay: In vivo mouse study of RS1-10 activation (AAV-PHP.eB, bioluminescent imaging); parameters: species or system C57BL/6 mice; details: 10 mg/kg single oral gavage
# Experimental: C57BL/6 mice underwent tail vein injection of 3.00E+11 vector (depicted in FIG. 11A) genomes/mouse AAV vector composed of a genome containing a cloned human Synapsin promoter driving the expression of a Firefly Luciferase gene. Expression of the luciferase gene was gated by the RS1-10 switch. The AAV vector utilized a brain-penetrant AAV-PHP.eB capsid (FIG. 11A). At approximately 3 weeks after AAV delivery, mice were either dosed with compound vehicle or 10 mg/kg 24 A as a single oral gavage. 6 hours after the oral dosing, mice were intraperitoneally administered D-Luciferin (150 mg/kg), anesthetized, and imaged with a bioluminescent imaging (BLI) system to analyze activation of RS1-10. Light flux from expressed Firefly Luciferase was measured from the whole body of each mouse as radiance and a brightfield image was also taken as an anatomical reference (FIG. 11B). […]
# C57BL/6 mice underwent tail vein injection of 3.00E+11 vector genomes/mouse AAV vector composed of a genome containing a cloned human Synapsin promoter driving the expression of a Firefly Luciferase gene. […] Light flux from expressed Firefly Luciferase was measured from the whole body of each mouse as radiance and a brightfield image was also taken as an anatomical reference. […]
# RS1-10, HEK-293T cells = assay: RS1-10 performance in HEK-293T cells; assay type: cell-based, human; details: CMV promoter, 18 hours, FIG. 10A
# Experimental: Human cell line HEK-293T cells or NIH-3T3 mouse fibroblast cell line cells were cultured in DMEM+10% FBS, collected after trypsinization, and then dispensed into 96-well plates (cell culture-treated). Each well of the plate was seeded with 1.0×10^5 cells in 100 μL culture medium. After a 1-hour incubation in the tissue culture incubator (5% CO2, 37 degrees C.), plasmid DNA was complexed with a transfection reagent, such as Lipofectamine 3000, and added to respective wells on the plate. Each well received an equivalent of 100 ng of plasmid DNA complexed with 0.15 μL Lipofectamine 3000. Triplicate wells were used for each condition tested in the experiment. The plasmid utilized in the experiments for HEK-293T cells and NIH-3T3 mouse fibroblast cells encoded a CMV promoter upstream of the RS1-10 construct that controlled the expression of a Firefly Luciferase gene followed by a SV40 polyadenylation signal. After a 10-minute incubation at room temperature, either DMSO vehicle or 24 A at specified doses was added to the wells of the plate. Plates were then incubated for 18 hours in a tissue culture incubator. Endpoint analysis was performed by adding 100 uL of a Luciferase substrate, such as Steady-Luc Firefly Luciferase substrate, to each well of the assay plate. […] Finally, the luminescent signal from each well was measured with a plate reader. […]
# RS1-10, Flp-In-293 cells = assay: Comparison of RS1-10 Flp-In cell line with constitutive Flp-In cell line; assay type: cell-based; details: Homo sapiens, 7 nM, 18 hours, FIG. 9G, read-out: luciferase signal relative to constitutively expressing cell line as 100%
# Experimental: Single-copy insertion of RSI-10 sequence and subsequent cell-line generation was performed in Flp-In-293 cells according to manufacturer's protocols. The RS1-10 sequence fused to a Firefly Luciferase gene was cloned into a Flp-In compatible pcDNA5/FRT expression vector with a CMV promoter and BGH polyadenylation signal. The resulting Flp-In cell line carried a single-copy expression cassette of RS1-10 integrated into the genome. Similarly, a cell line constitutively expressing Firefly Luciferase from a single-copy genomic insertion was generated in Flp-In-293 cells. For the constitutive cell line, only the Firefly Luciferase gene was cloned into the pcDNA5/FRT expression vector that was used to generate the single-copy genomic insertion. Both cell lines were cultured in DMEM+10% FBS, collected after trypsinization, and then dispensed into 96-well plates (cell culture-treated). Each well of the plate was seeded with 1.0×10^5 cells in 100 μL culture medium. Subsequently, either DMSO vehicle or 24 A at specified doses was added to the wells of the plate containing the RS1-10 Flp-In 293 cells. Triplicate wells were used for each condition tested in the experiment. Plates were then incubated for 18 hours in a tissue culture incubator (5% CO2, 37 degrees C.). […]
structure (smiles),measurement,setting,value
"CCN1CC(c2ccc(-c3ccc(-c4ccc5nn(C)cc5c4)cc3O)nn2)C1 [Compound 24A, 2-[6-(1-ethylazetidin-3-yl)pyridazin-3-yl]-5-(2-methyl-2H-indazol-5-yl)phenol]",light flux from the heads of mice (bioluminescent imaging),"RS1-10; 6 hours post dose, ~3 weeks after AAV delivery, vs vehicle",Significant increases in light flux
same,bioluminescent signal after drug washout,RS1-10; 7 days post dose,No significant signal was detected
same,fold-induction of luciferase,"RS1-10, HEK-293T cells",increasing fold-induction of luciferase with increasing concentrations of 24 A
same,activity at 0.007 µM,"RS1-10, Flp-In-293 cells",≥ 60%
